Results taken from ChEMBL document CHEMBL1201862, “PubChem BioAssay data set” (2004).
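Interpolation was linear, between the two tested concentrations surrounding the appropriate level; five concentrations were tested over 48 hours in 96-well plates. Here, GI50 denotes the concentration required for 50% inhibition of growth.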 The source made the active and inactive calls. Cut-off read from the data, not from the text of the source: active = GI50 up to about 1.1 µM and inactive = higher.

Key:
Assay in all cases: growth of human tumour cells (NCI), 48 h
786-0 = test system: 786-0
A498 = test system: A498
A549 = test system: A549
ACHN = test system: ACHN
BT-549 = test system: BT-549
CAKI-1 = test system: CAKI-1
CCRF-CEM = test system: CCRF-CEM
COLO 205 = test system: COLO 205
DU-145 = test system: DU-145
EKVX = test system: EKVX
HCC 2998 = test system: HCC 2998
HCT-116 = test system: HCT-116
HCT-15 = test system: HCT-15
HL-60 = test system: HL-60
HOP-62 = test system: HOP-62
HOP-92 = test system: HOP-92
HT-29 = test system: HT-29
Hs-578T = test system: Hs-578T
IGROV-1 = test system: IGROV-1
K562 = test system: K562
KM12 = test system: KM12
LOX IMVI = test system: LOX IMVI
M14 = test system: M14
MCF7 = test system: MCF7
MDA-MB-231 = test system: MDA-MB-231
MDA-MB-435 = test system: MDA-MB-435
MDA-N = test system: MDA-N
MOLT-4 = test system: MOLT-4
Malme-3M = test system: Malme-3M
NCI-H226 = test system: NCI-H226
NCI-H23 = test system: NCI-H23
NCI-H460 = test system: NCI-H460
NCI-H522 = test system: NCI-H522
NCI/ADR-RES = test system: NCI/ADR-RES
OVCAR-3 = test system: OVCAR-3
OVCAR-4 = test system: OVCAR-4
OVCAR-5 = test system: OVCAR-5
OVCAR-8 = test system: OVCAR-8
PC-3 = test system: PC-3
RPMI-8226 = test system: RPMI-8226
RXF 393 = test system: RXF 393
SF-268 = test system: SF-268
SF-295 = test system: SF-295
SF-539 = test system: SF-539
SK-MEL-28 = test system: SK-MEL-28
SK-MEL-2 = test system: SK-MEL-2
SK-MEL-5 = test system: SK-MEL-5
SK-OV-3 = test system: SK-OV-3
SN12C = test system: SN12C
SNB-19 = test system: SNB-19
SNB-75 = test system: SNB-75
SW-620 = test system: SW-620
TK-10 = test system: TK-10
U-251 = test system: U-251
UACC-257 = test system: UACC-257
UACC-62 = test system: UACC-62
UO-31 = test system: UO-31
T47D = test system: T47D

Compound: O=C(c1ccccc1F)c1c(NCc2ccccc2)c(=O)c1=O
- GI50 (786-0): > 100 µM (inactive)
- GI50 (A498): > 100 µM (inactive)
- GI50 (A549): > 100 µM (inactive)
- GI50 (ACHN): > 100 µM (inactive)
- GI50 (BT-549): > 100 µM (inactive)
- GI50 (CAKI-1): > 100 µM (inactive)
- GI50 (CCRF-CEM): > 100 µM (inactive)
- GI50 (COLO 205): > 100 µM (inactive)
- GI50 (DU-145): > 100 µM (inactive)
- GI50 (EKVX): > 100 µM (inactive)
- GI50 (HCC 2998): > 100 µM (inactive)
- GI50 (HCT-116): > 100 µM (inactive)
- GI50 (HCT-15): > 100 µM
- GI50 (HL-60): > 100 µM (inactive)
- GI50 (HOP-62): > 100 µM (inactive)
- GI50 (HOP-92): > 100 µM (inactive)
- GI50 (HT-29): > 100 µM (inactive)
- GI50 (Hs-578T): > 100 µM (inactive)
- GI50 (IGROV-1): 55.7 µM (inactive)
- GI50 (K562): > 100 µM (inactive)
- GI50 (KM12): > 100 µM (inactive)
- GI50 (LOX IMVI): > 100 µM (inactive)
- GI50 (M14): > 100 µM (inactive)
- GI50 (MCF7): > 100 µM (inactive)
- GI50 (MDA-MB-231): > 100 µM (inactive)
- GI50 (MDA-MB-435): > 100 µM (inactive)
- GI50 (MDA-N): > 100 µM (inactive)
- GI50 (MOLT-4): > 100 µM (inactive)
- GI50 (Malme-3M): > 100 µM (inactive)
- GI50 (NCI-H226): > 100 µM (inactive)
- GI50 (NCI-H23): > 100 µM (inactive)
- GI50 (NCI-H460): > 100 µM (inactive)
- GI50 (NCI-H522): 19.9 µM (inactive)
- GI50 (NCI/ADR-RES): > 100 µM (inactive)
- GI50 (OVCAR-3): > 100 µM (inactive)
- GI50 (OVCAR-4): > 100 µM (inactive)
- GI50 (OVCAR-5): > 100 µM (inactive)
- GI50 (OVCAR-8): > 100 µM (inactive)
- GI50 (PC-3): > 100 µM (inactive)
- GI50 (RPMI-8226): > 100 µM (inactive)
- GI50 (RXF 393): > 100 µM (inactive)
- GI50 (SF-268): > 100 µM (inactive)
- GI50 (SF-295): > 100 µM (inactive)
- GI50 (SF-539): > 100 µM (inactive)
- GI50 (SK-MEL-28): > 100 µM (inactive)
- GI50 (SK-MEL-2): > 100 µM (inactive)
- GI50 (SK-MEL-5): > 100 µM (inactive)
- GI50 (SK-OV-3): > 100 µM (inactive)
- GI50 (SN12C): > 100 µM (inactive)
- GI50 (SNB-19): > 100 µM (inactive)
- GI50 (SNB-75): > 100 µM (inactive)
- GI50 (SW-620): > 100 µM (inactive)
- GI50 (TK-10): > 100 µM (inactive)
- GI50 (U-251): > 100 µM (inactive)
- GI50 (UACC-257): > 100 µM (inactive)
- GI50 (UACC-62): > 100 µM (inactive)
- GI50 (UO-31): > 100 µM (inactive)

Compound: CN(C)C(=O)C(F)(F)C(c1ccc(F)cc1)C1C(=O)N(C)C(=O)N(C)C1=O (stereo not given)
- GI50 (786-0): > 100 µM (inactive)
- GI50 (A498): > 100 µM (inactive)
- GI50 (A549): > 100 µM (inactive)
- GI50 (ACHN): > 100 µM (inactive)
- GI50 (BT-549): > 100 µM (inactive)
- GI50 (CAKI-1): > 100 µM (inactive)
- GI50 (CCRF-CEM): > 100 µM (inactive)
- GI50 (COLO 205): > 100 µM (inactive)
- GI50 (DU-145): > 100 µM (inactive)
- GI50 (EKVX): > 100 µM (inactive)
- GI50 (HCC 2998): > 100 µM (inactive)
- GI50 (HCT-116): > 100 µM (inactive)
- GI50 (HCT-15): > 100 µM
- GI50 (HOP-62): > 100 µM (inactive)
- GI50 (HOP-92): > 100 µM (inactive)
- GI50 (KM12): > 100 µM (inactive)
- GI50 (LOX IMVI): > 100 µM (inactive)
- GI50 (M14): > 100 µM (inactive)
- GI50 (MCF7): > 100 µM (inactive)
- GI50 (MDA-MB-231): > 100 µM (inactive)
- GI50 (MDA-MB-435): > 100 µM (inactive)
- GI50 (MOLT-4): > 100 µM (inactive)
- GI50 (NCI-H226): > 100 µM (inactive)
- GI50 (NCI-H23): > 100 µM (inactive)
- GI50 (NCI-H460): > 100 µM (inactive)
- GI50 (NCI/ADR-RES): > 100 µM (inactive)
- GI50 (OVCAR-3): > 100 µM (inactive)
- GI50 (OVCAR-4): > 100 µM (inactive)
- GI50 (OVCAR-5): > 100 µM (inactive)
- GI50 (OVCAR-8): > 100 µM (inactive)
- GI50 (PC-3): > 100 µM (inactive)
- GI50 (RPMI-8226): > 100 µM (inactive)
- GI50 (RXF 393): > 100 µM (inactive)
- GI50 (SF-268): > 100 µM (inactive)
- GI50 (SF-295): > 100 µM (inactive)
- GI50 (SK-MEL-28): > 100 µM (inactive)
- GI50 (SK-MEL-2): > 100 µM (inactive)
- GI50 (SK-MEL-5): > 100 µM (inactive)
- GI50 (SK-OV-3): > 100 µM (inactive)
- GI50 (SNB-19): > 100 µM (inactive)
- GI50 (SNB-75): > 100 µM (inactive)
- GI50 (SW-620): > 100 µM (inactive)
- GI50 (T47D): > 100 µM (inactive)
- GI50 (TK-10): > 100 µM (inactive)
- GI50 (U-251): > 100 µM (inactive)
- GI50 (UACC-257): > 100 µM (inactive)
- GI50 (UACC-62): > 100 µM (inactive)
- GI50 (UO-31): > 100 µM (inactive)
